In PMC3510080, “Identification of Compounds with Anti-Proliferative Activity against Trypanosoma brucei brucei Strain 427 by a Whole Cell Viability Based HTS Campaign” (PLoS Neglected Tropical Diseases, 2012):
Read-outs that look alike come from different tables or passages of the source.

How the values were obtained:
[1] = test system: T.b. brucei bloodstream form lister 427; experiment: T.b. brucei Alamar Blue viability estimation assay (384-well HTS, retest and rescreen); type: cell-based, Trypanosoma brucei brucei; conditions: for IC50: Trypanosoma brucei
Method: (§1) T.b. brucei lister 427 cells were maintained in log phase growth in 25 cm^2 tissue culture flasks (Corning, NY, USA) by sub-culturing at either 24 or 48 hour intervals. Cells were grown in HMI-9 medium, supplemented with 10% fetal calf serum (FCS) and 100 IU/ml penicillin/streptomycin (Invitrogen, Carlsbad, California, USA) with incubation at 5% CO2 at 37°C in humidified conditions. HEK293 cells were maintained in high glucose DMEM with L-glutamine, supplemented with 1× non-essential amino acids (NEAA; Invitrogen, USA) and 1 mM sodium pyruvate. Growth conditions were in 5% CO2 at 37°C, under humidified conditions.
All reagent and cell additions were made with a Multidrop liquid handler (Thermo Scientific, Newington, NH, USA) under sterile conditions. Fifty-five microliters of 2000 cells/mL of T.b. brucei in HMI-9 medium were added to a black, clear-bottomed 384-well lidded plate (BD Biosciences, Franklin Lanes, NJ, USA). Cells were incubated for 24 hours at 37°C in an atmosphere of 5% CO2 before addition of 5 µl of compounds/DMSO for control wells. Compounds suspended in 100% DMSO or 100% DMSO as controls were pre-diluted 1∶21 in high glucose DMEM without FCS by using a Minitrack robotic liquid handler (PerkinElmer, Waltham, MA, USA). Five microliters of diluted sample was added to the plate to give a final DMSO concentration of 0.417% in the assay. Cells were incubated for an additional 48 hours at 37°C. Ten microliters of 70% Alamar Blue (Biosource, Bethesda, MD, USA) was added to each well (diluted in HMI-9 medium supplemented with 10% FCS) to a final concentration of 10% in the assay. The plate was incubated for two hours under the same conditions, then incubated for 22 hours in the dark at room temperature. Wells were read at 535 nm (excitation) and 590 nm (emission) wavelengths on a Victor II Wallac plate reader (PerkinElmer, USA). Specific dilutions are explained further in the primary and retest assay methodology. Reference drugs used in the assay were pentamidine (Sigma-Aldrich, St Louis, MO, USA), diminazene aceturate (Sigma-Aldrich, USA) and puromycin (Calbiochem, San Deigo, CA, USA). Pentamidine is used to treat patients with HAT and diminazene is a veterinary drug used against T.b. brucei to combat infections in cattle.
Primary screening of the library, consisting of 87,296 compounds in two hundred and forty eight 384-well plates, was undertaken in single point against T.b. brucei. Stock solutions consisted of test compound at a concentration of 5 mM in 100% DMSO. One µl of each compound stock solution was diluted by the addition of 40 µl of dilution medium (high glucose DMEM without FCS) by a multidrop liquid handler (Thermo Scientific, USA). A 5 µl sample of this diluted solution was then added to the trypanosome assay plate. The final concentration of test compound in the assay was […] and that of DMSO was 0.42% v/v. Compounds were screened over a total of 11 days, at an average of 80 plates per day, taking into consideration that the assay incubation was 3 days total. Test compounds were added to plates in batches of 20 at two hour intervals, to maintain the timing of additions and reads.
Compound activity was calculated as the percentage inhibition in relation to positive and negative controls. […] These in-plate negative controls were used in an effort to normalise compound activity in relation to any plate to plate variation in the assay signal. A whole 384-well control plate was included in each day's screening, one per 20 compound plates containing half a plate of 2 µM pentamidine for the positive assay control, and half a plate of 0.42% v/v DMSO as a negative control. The positive assay control was used to calculate compound activity for batches of 20 compound plates. As well providing the positive control data, these whole plate controls were used for the calculation of the Z' to measure the reproducibility of the assay.

[2] = test system: HEK293 cells; experiment: HEK293 Alamar Blue viability estimation assay; type: cell-based, human; conditions: pentamidine 1 µM, diminazene 40 µM
Method: as §1
Cells at 80% confluence were harvested and diluted in growth medium (high glucose DMEM supplemented with 10% FCS) to 7.27×10^4 cells/ml. Under sterile conditions, 55 µl of diluted cells per well were added to a black, clear bottomed 384-well lidded plate (BD Biosciences, Bedford, MA, USA) with a Multidrop liquid handler (Thermo Scientific, Barrington, IL, USA). Incubation times, compound additions and plate read were as per the trypanosome viability assay, with the exception that Alamar Blue was diluted in HEK293 growth media before addition, and incubation of Alamar Blue at 37°C, in 5% CO2, was for 4 hours, followed by incubation at room temperature for 20 hours. The activity of compounds against HEK293 cells was used to calculate the SI of mammalian to T.b. brucei cells. The control compound for HEK293 cells was puromycin (Calbiochem, USA).
Compounds identified from primary screening were retested against both T.b. brucei and HEK293 cells in duplicate and at varying concentrations to obtain a dose-response curve. Thus, a 5 µl sample of fresh compound stock solution (5 mM in DMSO) was cherry picked into 384-well plates and diluted 1∶10 in dilution medium (high glucose DMEM without FCS). Serial dilutions of these samples were then prepared in the same media by a Minitrak robotic liquid handler (Perkin Elmer, USA). […] A screening dose of 10.4 µM was included in the dilution series to enable reconfirmation of primary screening T.b. brucei activity.
The DMSO working concentration in the serial dilutions was maintained at 5%, giving a final assay concentration of 0.42% DMSO, except for the 41.7 µM test compound solution, where as previously stated the corresponding DMSO concentration was 0.83% v/v. […] Therefore the 41.7 µM test compound sample with 0.83% v/v DMSO was not used in the T.b. brucei assay and thus the top test compound concentration in this assay was 20.8 µM.
Compound activity in the retest campaign was calculated as percentage inhibition in relation to positive and negative controls, in the same manner as the primary screening campaign. The positive controls, pentamidine (2 µM final concentration) for T.b. brucei and puromycin (8 µM final concentration) for HEK293, were both screened in whole 384-well control plates. Whole 384-well plate controls were included after every batch of 20 compound plates, and were comprised of half a plate of negative control and half a plate of positive control. The negative control was the vehicle, […]. The negative control was also included in column 24 of each compound assay plate to determine signal variation from plate to plate and to calculate compound activity. The exception was the 41.7 µM compound dose used in the HEK293 assay. In these plates column 24 contained 0.83% DMSO as a negative control. A separate 384-well plate containing a 13 point dose-response of the reference compounds puromycin, pentamidine and diminazene, in triplicate, was also included per 20 compound test plate batch to estimate assay sensitivity.
These compounds were retested as in dose for N of three replicates, as described above for both T.b. brucei and HEK293.

[3] = test system: mammalian cell lines; conditions: cited from earlier work

N=C(N)c1ccc(/N=N/Nc2ccc(C(=N)N)cc2)cc1 [Diminazene, diminazene aceturate, reference compound]
Selectivity Index T.B ([1]; HEK293 IC50 / T.b. brucei IC50, > if less than 50% activity at 75.8 µM in HEK293): >330 | IC50 ([1]; 13 control plates, triplicate dose-response, read-out: IC50 of reference compounds, primary screening campaign): 65.4 nM | IC50 ([1]; during rescreening of resynthesized compounds, read-out: Reference Compound Activity T.B (IC50)): 121 ± 9.04 nM | IC50 ([1]; reference compounds, read-out: IC50 against T.b. brucei, retest screening campaign): 29.5 ± 5.8 nM | activity in the HEK293 assay at the doses screened, rescreening [2]: neither pentamidine nor diminazene displayed activity | activity in the HEK293 assay at the doses screened, retest campaign [2]: Neither pentamidine nor diminazene displayed activity | reported SI [3]: 692
